Article PMC2263054, “Functional evolution of the vitamin D and pregnane X receptors” (BMC Evolutionary Biology, 2007)

What was measured:
Xenopus laevis VDR = biological target: T1, Xenopus laevis VDR (Xenopus laevis, UniProt O13124); test: luciferase reporter transactivation assay in HepG2-NTCP cells, GAL4/xlVDR LBD chimera with tk-UAS-Luc; assay type: cell-based; details: HepG2-NTCP cells, luciferase reporter; unit not given; also cells saying No effect
T1 sequence (O13124 90-422): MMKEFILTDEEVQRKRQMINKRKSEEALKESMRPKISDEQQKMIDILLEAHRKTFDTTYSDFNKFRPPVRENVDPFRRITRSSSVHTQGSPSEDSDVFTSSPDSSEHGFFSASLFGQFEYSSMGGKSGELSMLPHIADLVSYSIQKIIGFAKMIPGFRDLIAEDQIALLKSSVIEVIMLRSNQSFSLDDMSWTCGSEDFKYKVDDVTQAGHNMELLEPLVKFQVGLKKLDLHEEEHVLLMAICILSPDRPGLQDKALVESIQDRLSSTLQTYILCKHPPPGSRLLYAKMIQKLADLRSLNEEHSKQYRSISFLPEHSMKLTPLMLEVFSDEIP

Zebrafish VDR = biological target: T2, Zebrafish VDR (Danio rerio, UniProt Q9PTN2); test: luciferase reporter transactivation assay in HepG2-NTCP cells, GAL4/zfVDR LBD chimera with tk-UAS-Luc; assay type: cell-based; details: HepG2-NTCP cells, luciferase reporter; unit not given; also cells saying No effect
T2 sequence (Q9PTN2 121-453): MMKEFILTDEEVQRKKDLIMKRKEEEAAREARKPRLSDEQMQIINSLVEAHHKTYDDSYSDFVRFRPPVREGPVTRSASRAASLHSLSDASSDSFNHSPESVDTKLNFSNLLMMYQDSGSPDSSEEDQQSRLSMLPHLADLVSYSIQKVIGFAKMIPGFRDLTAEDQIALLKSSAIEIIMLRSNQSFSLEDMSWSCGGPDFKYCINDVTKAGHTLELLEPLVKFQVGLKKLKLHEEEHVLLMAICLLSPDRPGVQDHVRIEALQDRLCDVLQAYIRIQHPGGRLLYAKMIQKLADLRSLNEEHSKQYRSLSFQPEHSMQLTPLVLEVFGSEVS

Sea lamprey VDR = biological target: T3, Sea lamprey VDR (Petromyzon marinus, UniProt Q7ZZY9); assay type: cell-based; details: HepG2-NTCP cells, luciferase reporter; unit not given; also cells saying No effect
T3 sequence (Q7ZZY9 92-406): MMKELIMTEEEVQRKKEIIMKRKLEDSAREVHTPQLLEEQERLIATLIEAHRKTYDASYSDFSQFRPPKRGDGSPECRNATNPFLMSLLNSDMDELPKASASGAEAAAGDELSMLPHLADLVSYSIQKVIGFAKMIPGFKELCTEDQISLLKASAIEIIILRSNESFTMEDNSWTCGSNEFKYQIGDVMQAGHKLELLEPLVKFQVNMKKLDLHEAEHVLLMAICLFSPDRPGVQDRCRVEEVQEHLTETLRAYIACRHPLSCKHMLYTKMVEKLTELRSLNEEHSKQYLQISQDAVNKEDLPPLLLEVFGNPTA

β-actin = test: zebrafish in vivo liver transcription, semi-quantitative RT-PCR: β-actin
Protocol: (§1) Adult zebrafish were purchased from a commercial fish supplier and acclimatized for at least two-weeks in 20 L tanks with flow-through freshwater at 22°C. A single dose of 15 mg/kg of 5α-cyprinol, 5β-cyprinol 27-sulfate, 5α-scymnol or 5β-scymnol-27 sulfate, dissolved in saline, was injected intraperitoneally. A control group was injected with saline. After 48 hr, the animals were decapitated and livers of three fish (n = 5 each group) were removed, pooled and weighed, totalizing 15 fish per group. Fish were not fed throughout the experimental period. […].
(§2) To study the transcription of CYP3C1, ABCB5, PXR, GAPDH and β-actin genes in zebrafish, initial fragments of these genes were identified (Genbank: AW202769, Genbank: BQ284593, Genbank: AAM22215, Genbank: BC083506, Genbank: AF057040, respectively). The PCR primers for CYP3C1 were designed using MacVector Software and primers for MDR1 were designed using Primer 3 Software (Whitehead Institute for Biomedical Research; [75]). Primer pairs for amplifying CYP3C1 fragment were 5'-[…]-3' (sense) and 5'-[…]-3' (antisense) and for amplifying ABCB5 were 5'-[…]-3' (sense) and 5'-[…]-3' (antisense). The PCR primers for PXR were 5'-[…]-3' (sense) and 5'-[…]-3' (antisense), for amplifying GAPDH were 5'-[…]-3' (sense) and 5' […] 3' (antisense) and for β-actin were 5'-[…]-3' (sense) and 5'-[…]-3' (antisense). RNA was isolated using Trizol (Invitrogen) according to manufacturer's instructions. Purity and concentration of RNA of each sample were verified at 260 nm. The RNA integrity was checked by non-denaturing gel electrophoresis using 1 μg of total RNA in each sample.
(§3) Two micrograms of total RNA were reversed transcribed using Ominiscript RT Kit (Qiagen, Valencia, CA, USA). cDNA concentration was checked at 260 nm, and the amount adjusted to 1 μg to perform semi-quantitative RT-PCR. The expected size of the PXR, Cyp3C1, abcb5, GAPDH and β-actin fragments were 577, 477, 218, 234 and 550 bp, respectively. Biotools DNA polymerase (Biotools B&M Labs, S.A., Madrid, Spain) kit was used for the PCR reaction using a thermocycler Personal Mastercycler (Eppendörf) with the following PCR program: 5 cycles of 94°C for 5 s, 72°C for 35 s; 5 cycles of 94°C for 5 s, 70°C for 10 s, 72°C for 35 s; and 23, 24, 35, 15 and 24 cycles (PXR, Cyp3C1, abcb5, GAPDH and β-actin, respectively) of 94°C for 5 s, 61, 54, 48, 49 and 61°C for 10 s (PXR, Cyp3C1, abcb5, GAPDH and β-actin, respectively), and 72°C for 35 s. The PXR, CYP3C1, ABCB5 and GAPDH transcript levels were quantified using Gel-Quant™ (Multiplexed Biotechologies) and β-actin was used to normalize the data. The Shapiro-Wilk W test was used to evaluate normality. When data were parametric the analysis was performed using Student t test; otherwise Mann Whitney U test was applied. […]

[1] = test system: MDR1 (tentatively classified as ABCB5 in zebrafish); test: zebrafish in vivo liver transcription, semi-quantitative RT-PCR: MDR1
Protocol: as §1, §2, §3

PXR = test: zebrafish in vivo liver transcription, semi-quantitative RT-PCR: PXR
Protocol: as §1, §2, §3

[2] = zebrafish, 15 mg/kg intraperitoneally, single dose, 48 hr

`C[C@H](CCCC(CO)COS(=O)(=O)O)[C@H]1CC[C@H]2[C@@H]3[C@H](O)C[C@H]4C[C@H](O)CC[C@]4(C)[C@H]3C[C@H](O)[C@]12C` (stereo partly drawn) [5α-Cyprinol 27-sulfate] was tested, and the “Xenopus VDR EC50 ± SD” value (Xenopus laevis VDR) was “No effect”, the “Zebrafish VDR EC50 ± SD” value (Zebrafish VDR) was “No effect” and the “Sea lamprey VDR EC50 ± SD” value (Sea lamprey VDR) was “No effect”. The “liver transcription of β-actin” value (β-actin; [2]) was 38.2 ± 20.7 arbitrary units, the “liver transcription of MDR1 (ABCB5)” value [1, 2] was 2.29 ± 0.75 arbitrary units normalized to β-actin and the “liver transcription of PXR” value (PXR; [2]) was 1.50 ± 0.67 arbitrary units normalized to β-actin.

With `C[C@H](CCCC(CO)CO)[C@H]1CC[C@H]2[C@@H]3[C@H](O)C[C@H]4C[C@H](O)CC[C@]4(C)[C@H]3C[C@H](O)[C@]12C` [5α-Cyprinol, 5α-cholestan-3α,7α,12α,26,27-pentol] the “Xenopus VDR EC50 ± SD” value (Xenopus laevis VDR) was “No effect”, the “Zebrafish VDR EC50 ± SD” value (Zebrafish VDR) was “No effect” and the “Sea lamprey VDR EC50 ± SD” value (Sea lamprey VDR) was “No effect”. For the same compound, the “liver transcription of β-actin” value (β-actin; ip, 15 mg/kg, 48 h) was 44.7 ± 19.6 arbitrary units, the “liver transcription of MDR1 (ABCB5)” value ([1]; ip, 15 mg/kg, 48 h) was 2.00 ± 1.00 arbitrary units normalized to β-actin and the “liver transcription of PXR” value (PXR; ip, 15 mg/kg, 48 h) was 0.58 ± 0.33 arbitrary units normalized to β-actin.
